Test results taken from patent publication US20220279826A1, “OFF-FLAVOR SUPPRESSING AGENT” (AJINOMOTO CO., INC., priority 2019, published 2022).

Assays:
[1] = Sensory evaluation of off-taste suppressing effect in 0.8 wt % potassium chloride aqueous solution (Experimental Examples 1 and 2)
Experimental: Each compound shown in the following Tables 1 to 13 was added to a 0.8 wt % potassium chloride aqueous solution at the concentration (addition concentration) shown in the following Tables 1 to 13 to prepare each evaluation sample.
Based on the following evaluation criteria, a panel of two experts determined by consensus the intensity of off-tastes (bitter taste, metallic taste, harsh taste, astringent taste) derived from potassium chloride in each evaluation sample, by reference to each potassium chloride aqueous solution adjusted to 0.8 wt %, 0.75 wt %, 0.7 wt %, or 0.65 wt %.
−: intensity of the same level as potassium chloride aqueous solution with potassium chloride concentration of not less than 0.8 wt %
+: intensity of the same level as potassium chloride aqueous solution with potassium chloride concentration of not less than 0.75 wt % and less than 0.8 wt %
++: intensity of the same level as potassium chloride aqueous solution with potassium chloride concentration of not less than 0.7 wt % and less than 0.75 wt %
+++: intensity of the same level as potassium chloride aqueous solution with potassium chloride concentration of not less than 0.65 wt % and less than 0.7 wt %
Each compound shown in the following Table 14 was added to a 0.8 wt % potassium chloride aqueous solution at the concentration (addition concentration) shown in the following Table 14 to prepare each evaluation sample.

[2] = Sensory evaluation in stevia aqueous solution (Experimental Example 7); details: text summary of Table 21
Experimental: Each compound shown in the following Table 21 was added […] to an aqueous solution prepared by dissolving stevia (manufactured by PureCircle) ([…]) in ion exchange water (99.93 parts by weight) (hereinafter at times referred to as stevia aqueous solution) so as to achieve the concentration (addition concentration) shown in the following Table 21 to prepare each evaluation sample.
(§1) Based on the following evaluation criteria, a panel of four experts determined by consensus the intensity of off-tastes (bitter taste, harsh taste, metallic taste) derived from stevia in each evaluation sample, by comparison with a stevia aqueous solution without addition of any compound (negative control).

[3] = Sensory evaluation in 0.15 wt % catechin aqueous solution (Experimental Example 9); details: summary of Table 23
Experimental: (§2) Each compound shown in the following Table 23 was added to a 0.15 wt % catechin aqueous solution (an aqueous solution prepared by dissolving catechin (0.15 parts by weight) in ion exchange water (99.85 parts by weight)) so as to achieve the concentration (addition concentration) shown in the following Table 23 to prepare each evaluation sample.
as §1, with “taste, rough taste,” for “taste,”, “harsh” for “harsh taste, metallic”, “from catechin” for “from stevia”, “a 0.15 wt % catechin” for “a stevia”

[4] = Sensory evaluation in 0.12 wt % aspartame aqueous solution (Experimental Example 12); details: Table 26
Experimental: as §2, with “26” for “23”, “0.12” for “0.15”, “aspartame” for “catechin”, “aspartame (0.12” for “catechin (0.15”, “(99.88” for “(99.85”
as §1, with “of three” for “of four”, “from aspartame” for “from stevia”, “a 0.12 wt % aspartame” for “a stevia”

[5] = Sensory evaluation in soy protein aqueous solution (Experimental Example 13); details: Table 27
Experimental: Each compound shown in the following Table 27 was added to an aqueous solution prepared by dissolving powdered soy protein (4 parts by weight) in water (96 parts by weight) (hereinafter at times referred to as soy protein aqueous solution) so as to achieve the concentration (addition concentration) shown in the following Table 27 to prepare each evaluation sample. Here, the powdered soy protein manufactured by FUJI OIL CO., LTD. was used.
as §1, with “astringent” for “metallic”, “soy protein” for “stevia”

[6] = Sensory evaluation in granular soy protein (Experimental Example 14); details: text summary of Table 28
Experimental: Each compound shown in the following Table 28 was added to granular soy protein (manufactured by FUJI OIL CO., LTD.) so as to achieve the concentration (addition concentration) shown in the following Table 28 to prepare each evaluation sample.
as §1, with “astringent” for “metallic”, “soy protein” for “stevia”, “granular soy protein” for “a stevia aqueous solution”

[7] = Sensory evaluation in granular pea protein (Experimental Example 15); details: Table 29
Experimental: Each compound shown in the following Table 29 was added to granular pea protein (manufactured by Roquette) so as to achieve the concentration (addition concentration) shown in the following Table 29 to prepare each evaluation sample.
as §1, with “astringent” for “metallic”, “pea protein” for “stevia”, “granular pea protein” for “a stevia aqueous solution”

[8] = Sensory evaluation in granular fava bean protein (Experimental Example 16); details: Table 30
Experimental: Each compound shown in the following Table 30 was added to granular fava bean protein (manufactured by Schouten) so as to achieve the concentration (addition concentration) shown in the following Table 30 to prepare each evaluation sample.
as §1, with “astringent” for “metallic”, “fava bean protein” for “stevia”, “granular fava bean protein” for “a stevia aqueous solution”

[9] = Sensory evaluation in 1 wt % methyl cellulose aqueous solution (Experimental Example 20); details: Table 35
Experimental: Each compound shown in the following Table 35 was added to a 1 wt % methyl cellulose aqueous solution (aqueous solution prepared by dissolving methyl cellulose (1 part by weight) in water (99 parts by weight)) so as to achieve the concentration (addition concentration) shown in the following Table 35 to prepare each evaluation sample. Here, the methyl cellulose manufactured by Unitec Foods Co., Ltd. was used.
as §1, with “taste, astringent” for “taste, metallic”, “from methyl cellulose” for “from stevia”, “a 1 wt % methyl cellulose” for “a stevia”

[10] = 0.8 wt % potassium chloride aqueous solution, addition concentration 100 weight ppb (12.5 weight ppm with respect to potassium chloride)
[11] = 0.8 wt % potassium chloride aqueous solution, addition concentration 500 weight ppb (62.5 weight ppm with respect to potassium chloride)
[12] = potassium chloride aqueous solutions, Tables 1 to 14
[13] = 0.8 wt % potassium chloride aqueous solution, addition concentration 50 weight ppb (6.25 weight ppm with respect to potassium chloride)

SMILES	off-taste suppressing effect [1, 10]	off-taste suppressing effect [1, 11]	off-taste suppressing effect ([1]; 0.8 wt % potassium chloride aqueous solution, addition concentration 1000 weight ppb (125 weight ppm with respect to potassium chloride))	off-taste suppressing effect ([1]; 0.8 wt % potassium chloride aqueous solution, addition concentration 2000 weight ppb (250 weight ppm with respect to potassium chloride))	intensity of off-tastes (bitter taste, metallic taste, harsh taste, astringent taste) derived from potassium chloride [1, 12]	intensity of off-tastes (bitter taste, harsh taste, metallic taste) derived from stevia [2]	intensity of off-tastes (bitter taste, rough taste, harsh taste) derived from catechin [3]	intensity of off-tastes (bitter taste, harsh taste, metallic taste) derived from aspartame [4]	intensity of off-tastes (bitter taste, harsh taste, astringent taste) derived from soy protein [5]	intensity of off-tastes (bitter taste, harsh taste, astringent taste) derived from soy protein [6]	intensity of off-tastes (bitter taste, harsh taste, astringent taste) derived from pea protein [7]	intensity of off-tastes (bitter taste, harsh taste, astringent taste) derived from fava bean protein [8]	intensity of off-tastes (bitter taste, harsh taste, astringent taste) derived from methyl cellulose [9]	off-taste suppressing effect [1, 13]	off-taste suppressing effect ([1]; in words, potassium chloride aqueous solutions, Tables 1 to 14)	off-taste suppressing effect ([1]; 0.8 wt % potassium chloride aqueous solution, addition concentration 10 weight ppb (1.25 weight ppm with respect to potassium chloride))
CC(=O)c1ccc(C)o1 [2-acetyl-5-methylfuran]	+ (intensity of the same level as potassium chloride aqueous solution with potassium chloride concentration of not less than 0.75 wt % and less than 0.8 wt %)	++ (intensity of the same level as potassium chloride aqueous solution with potassium chloride concentration of not less than 0.7 wt % and less than 0.75 wt %)	+ (intensity of the same level as potassium chloride aqueous solution with potassium chloride concentration of not less than 0.75 wt % and less than 0.8 wt %)	+ (intensity of the same level as potassium chloride aqueous solution with potassium chloride concentration of not less than 0.75 wt % and less than 0.8 wt %)	decreased	suppressed	suppressed	suppressed	suppressed	suppressed	suppressed	suppressed	suppressed	–	–	–
CC(=O)c1ccco1 [2-acetylfuran]	+++ (intensity of the same level as potassium chloride aqueous solution with potassium chloride concentration of not less than 0.65 wt % and less than 0.7 wt %)	+ (intensity of the same level as potassium chloride aqueous solution with potassium chloride concentration of not less than 0.75 wt % and less than 0.8 wt %)	–	–	decreased	suppressed	suppressed	suppressed	suppressed	suppressed	suppressed	suppressed	suppressed	++ (intensity of the same level as potassium chloride aqueous solution with potassium chloride concentration of not less than 0.7 wt % and less than 0.75 wt %)	high	–
CC1OCCC1=O (stereo not drawn) [2-methyltetrahydrofuran-3-one]	++ (intensity of the same level as potassium chloride aqueous solution with potassium chloride concentration of not less than 0.7 wt % and less than 0.75 wt %)	+ (intensity of the same level as potassium chloride aqueous solution with potassium chloride concentration of not less than 0.75 wt % and less than 0.8 wt %)	–	–	decreased	suppressed	suppressed	suppressed	suppressed	suppressed	suppressed	suppressed	suppressed	++ (intensity of the same level as potassium chloride aqueous solution with potassium chloride concentration of not less than 0.7 wt % and less than 0.75 wt %)	–	++ (intensity of the same level as potassium chloride aqueous solution with potassium chloride concentration of not less than 0.7 wt % and less than 0.75 wt %)
